These results are taken from article PMC9227536, “Prediction of Pharmacokinetics of IDP-73152 in Humans Using Physiologically-Based Pharmacokinetics” (Pharmaceutics, 2022).

The series is described as follows: Metabolic stability in liver microsomes, mouse. It counts as in vitro ADME. The protocol:
In this study, the metabolic stability of IDP-73152 in microsomes from mice, rats, dogs, and humans, as well as rat hepatocytes, was determined. For a microsomal incubation study, the incubation mixtures, containing mouse, rat, dog, or human liver microsomes at a protein concentration of 0.5 mg/mL, 3.3 mM MgCl2, and 1.3 mM NADPH, in a 100 mM potassium phosphate buffer (pH 7.4), were preincubated for 3 min at 37 °C. In parallel, a control incubation mixture (i.e., identical composition to that of the incubation mixture without NADPH) was also prepared for comparison. The reaction was initiated by the addition of a 10 × solution of IDP-73152 (final concentration in mixtures of 1 μM) to the incubation mixtures or the control incubation mixtures. The mixtures were incubated in a shaking water bath (37 °C, 90 rpm). Aliquots (30 μL) were collected at 0, 15, 30, and 45 min from the mixture and the reaction was terminated by the addition of a 4-fold volume of ice-cold acetonitrile to the sample. The mixture was then vortexed for 5 min and centrifuged for 10 min at 10,000× g. The supernatant was collected and stored at -80 °C until the analysis. For the hepatocyte incubation study, rat hepatocytes were freshly prepared using the two-step collagenase perfusion method with slight modifications. After the isolation, cell viability during the preparation process was first determined by a trypan blue exclusion assay prior to the stability study. The preparation was considered adequate for subsequent studies if the viability was greater than 80%. When appropriate, the hepatocytes were resuspended in Williams' media E containing 10% fetal bovine serum, 1% penicillin-streptomycin, and 0.01% insulin-transferrin-selenium (i.e., 10 mg/mL insulin, 5.5 mg/mL transferrin, and 5 mg/mL selenium) at pH 7.4. The reaction was carried out with the hepatocyte suspension prepared at 1 × 10^6 cells/mL (0.5 mL) and initiated by the addition of equal volume of IDP-73152 solution (i.e., final concentration of the compound at 1 μM in 0.5 × 10^6 cells/mL of hepatocytes) to the hepatocyte suspension. […] Assuming first-order disappearance kinetics, the slope k of the logarithmically transformed IDP-73152 concentration in the sample versus time plot was determined by the linear regression analysis of the data. The total intrinsic clearance (CLint,mic, μL/min/mg protein for microsomal incubation study and CLint,hep, μL/min/million cells for hepatocytes incubation study) was then calculated using the following equations:(4) CLint, mic=k×Volume of incubation medium (μL)/Protein in incubation medium (mg) (5) CLint,hep=k×Volume of incubation (μL)/Number of cells in incubation (×10^6) The unbound intrinsic clearance, with respect to the whole liver ([…]), was then estimated for the two cases. […]
In general terms: Microsomes from liver hold many membrane-bound enzymes, among them those of drug oxidation.

Consider `CC(C)(C)[C@H](NC(=O)[C@H](CC1CCCC1)CN(O)C=O)C(=O)N1CCC(NCc2cc(F)c(F)cc2F)CC1` [IDP-73152], for which, under “mice, from microsomal clearance, well-stirred model”, the “hepatic ER (extraction ratio)” value was 0.102 ± 0.002. Besides, under “mice, scaled up to the whole liver from microsomes”, the “CLu,int,H” value was determined as 0.539 ± 0.011 L/h. Moreover, for the setting “mouse, liver microsomes, pH 7.4, mice, read-out: CLh calculated from the CLint,mic (converted)”, the CLhep predicted at 1 μM is 22.7 mL/min/kg. Further, for the setting “mouse, pH 7.4, mice liver microsomes 0.5 mg/mL, 1 μM, read-out: CLint,mic”, the microsomal CLint at 1 μM was 80.1 ± 1.7 µL/min/mg.
